Reference: patent publication US5023358A, “Vanadyl organo-mineral compound, method for obtaining such a compound, pharmaceutical composition containing this organo-mineral compound” (Panmedica S.A., priority 1987, dated 1991)

Key:
diabetic rats [1] = conditions: cited from earlier work
Na^+ /K^+ ATP ase enzyme = conditions: absorption mechanisms; cited from earlier work
[2] = test system: male rats of the WISTAR strain; type: in vivo; conditions: oral, rat
From the text: First, the potential toxicity of the complex has been investigated.
The investigation has been carried out starting from the bimolecular vanadyl compound having one free amin group, of the general formula (II). After a unique oral administration to the rat, the measured toxicity of the compound of formula (II) on the one hand and of the vanadyl sulfate on the other hand have been compared.
The procedure of the toxicological tests is as follows.
On the one hand, the toxicity of the compound (II) is examined by administering orally increasing doses of compound (II), up to 1 g/kg, to a group of 10 male rats of the WISTAR strain with a mean weight of 150 g. A quantity of 10 ml/kg of a suspension of compound (II) in 3% gum arabic is administered, by forcible feeding, to animals which have not been fed. Then, the animals are examined for 14 days, in order to count for the deaths and to search and observe the signs of toxicity.
On the other hand, the acute toxicity of the vanadyl sulfate (VOSO4) is contemplated under similar conditions on animals divided into 7 groups of 10 animals to which the following doses have been administered: 300, 400, 500, 600, 800, 1000 and 1500 mg/kg.
The lethal dose (LD50) has been calculated by the method of […] AND WILCOXON.

diabetic rats [3] = assay: Glycemia of diabetic (streptozotocin) and non-diabetic rats after a unique oral administration; type: in vivo, rat
From the text: Then, the anti-diabetic activity of the above described complex of vanadyl and cystein has been examined.
The examination has been performed also starting from the compound with the formula (II). The activity of this compound has been compared on diabetic rats and on non-diabetic rats, and the activity of this compound (II) has be compared with that of the vanadyl sulfate.
Tests have been carried out on animals having a glycemia higher than 3 g/l.
The method is as follows. Diabetes is induced by intraveinous injection of a unique dose of streptozotocin of about 50 mg/kg, on male or female rats of the WISTAR strain with a mean weight of 200 g. The glycemia is measured 4 days after the injection.
The procedure of the pharmacological tests is as follows. A quantity of 45 mg/kg of compound (II) is administered by forcible feeding (doses of 10 ml/kg) to animals which have been fed, in the form of a suspension in a 3% solution of gum arabic. A dose of vanadyl sulfate equimolar to 45 mg/kg of compound (II) is administered.
The glycemia is measured by quantitative analysis. Blood is sampled from the tail of the animal. The glycemia is measured by means of a device named "AMES glucometer" (trade-mark). The rate of glycemia is read on "Derotrostix" dipsticks (trade-mark) of the aforesaid device.

diabetic rats [4] = conditions: oral, cited from earlier work
insulin receptor = conditions: intra-cellular, vanadyl (V^4+) form; cited from earlier work
[5] = 45 mg/kg compound (II) or equimolar vanadyl sulfate

## sodium vanadate
Diabetic rats [1]; in drink water, diabetic rats
  effect on cardiac function impairment associated to diabetes: the impairing of the cardiac function associated to diabetes is prevented
  effect on glycemia of diabetic rats: the glycemia of the rats is normalized
Diabetic rats [1]; oral
  anti-diabetic effect, taken orally: has an anti-diabetic effect

## [O]=[V]([O-])([O-])[O-] [vanadate]
Na^+ /K^+ ATP ase enzyme
  effect on Na+/K+ ATPase: inhibiting the Na^+ /K^+ ATP ase enzyme

## O=S(=O)([O-])[O-].[O]=[V+2] [vanadyl sulfate]
[2]; 800, 1000 and 1500 mg/kg
  signs of toxicity at the higher doses: an hypothermia and cases of chromodacryorrhoea
[2]; unique administration
  dose of first signs of toxicity: 400 mg/kg
[2]; unique administration, 20160 min
  LD50: 600 mg/kg
[2]; unique administration, general and from 400 mg/kg
  signs of toxicity: diarrhoea with a variable seriousness, a decrease of the motor activity and a loss of flesh
Diabetic rats [3]; [5]
  duration of the drop of glycemia: ≤ 2 h
  effect on glycemia: weaker and transitory decrease of the glycemia
Diabetic rats [3]; vanadyl sulfate equimolar to 45 mg/kg of compound (II)
  maximal decrease of glycemia: about 1 g/l
Diabetic rats [4]; diabetic rats
  acute toxicity: presents an acute toxicity
Diabetic rats [4]
  anti-diabetic effect in diabetic rats: has an anti-diabetic effect

## [O]=[V+2] [vanadyl (V^4+)]
Insulin receptor
  effect on phosphorylation of the insulin receptor: facilitating or inducing the phosphorylation of the insulin receptor
